# In patent publication US5643884A, “Lupane triterpenoid derivatives” (Glycomed Incorporated, priority 1993, dated 1997):
# How the values were obtained:
# [1] = tested on: arachidonic acid (AA) induced ear swelling; experiment: arachidonic acid (AA), murine skin inflammation model (ear swelling); assay type: in vivo; conditions: topical, 1 mg, 90 minutes
# Protocol: Arachidonic acid is known to induce an inflammatory response and the compounds were tested for their capacity to inhibit the response.
# Briefly, the compounds at an appropriate concentration are dissolved in a suitable solvent, and applied to a rodent ear immediately following application of arachidonic acid (AA). A control of AA alone is run. About 90 minutes later a 6 mm disk of each ear is removed and weighed.
# For comparison, betulinic acid was also tested. All compounds were dissolved at 50 mg/mL in CHCl3 :CH3 OH (1:1) and […] of each compound was applied two times to the ear, at about a 2 minute interval or the period of time it took for the solvent to evaporate from the ear, immediately following arachidonic acid (AA). A control of AA alone was run. Ninety minutes later a 6 mm disk of each ear was removed and weighed.
# E-selectin = experiment: cancer cell adhesion to E-selectin (E-selectin chimera binding to fixed LS174T colon carcinoma cells); assay type: cell-based; conditions: lowest concentration from serial two-fold dilutions inhibiting by 50% or more, FIGS. 3 and 4
# Protocol: The mixture is rotated briskly on a rotary platform at room temperature for about 30-60 minutes. Particulate matter is removed by centrifugation, and the soluble fraction is transferred onto 96-well microtiter plates containing glutaraldehyde fixed LS174T colon carcinoma cells. This cell line is known to adhere to E-selectin. After 60 minutes at 37° C., plates are washed and E-selectin chimera bound to cells is quantified by addition of pNPP substrate in 1M diethanolamine buffer containing 0.1 mg/ml MgCl2 at pH 9.8. Plates are developed in the dark and read at 405 nm. The IC50 values are calculated and are the lowest concentrations from serial two-fold dilutions (quadruplicate wells at each concentration) which inhibits cell binding by 50% or more relative to the control.
# Experiments were conducted to determine the capacity of the invention compounds to interfere with the binding of cancer cells to E-selectin. The compounds are dissolved in dimethylformamide (DMF) prior to being assayed. […] After 60 minutes at 37° C., plates are washed and E-selectin chimera bound to cells is quantified by addition of pNPP substrate in 1M diethanolamine buffer containing 0.1 mg/ml MgCl2 at pH 9.8. Plates are developed in the dark and read at 405 nm. […]
# P-selectin = experiment: inhibition of P-selectin binding to HL-60 cells; assay type: cell-based, human HL-60 cells; conditions: read-out: IC50, P-selectin binding to HL-60 cells; P-selectin 200 ng/ml; 4° C., 1 hour
# Protocol: Certain of the invention compounds were tested for their capacity to inhibit P-selectin binding to HL-60 cells, and to a chemical known to bind to P-selectin, 2,3 sLex. The following materials and procedures were used.
# P-Selectin Detection Solutions. Goat F(ab')2 anti-human IgG (Fc spec.)-biotin and streptavidin-AP were diluted 1:1000 in 1% BSA-TBS with 1 mM Ca^++. An Elisa assay was utilized to measure P-selectin binding to 2,3 sLex, and P-selectin was added at 300 ng/ml. An Elisa assay was also used to assay for the capacity of the invention compounds to inhibit HL-60 cell binding to P-selectin. HL-60 cells were used, and P-selectin was added at 200 ng/ml.
# 2,3 sLex was coated at 30 pmoles/well to Probind microtiter plates for Elisa. The glycolipid was added at 50 μl/well in 50% MeOH and allowed to evaporate overnight. Elisa plates and HL-60 assay plates were blocked with 5% BSA-TBS Ca^++ for more than an hour at room temperature. The plates were washed with TBS without Ca^++.
# HL-60 cells were harvested by centrifugation, washed with TBS no Ca^++, counted, and the density adjusted to 2×10^6 /ml in 1% BSA-TBS Ca^++.
# Briefly, the assays were conducted as follows. […] DMF solutions were added directly to 1% BSA/TBS-Ca for dilutions through 0.5 mM. Lower concentrations were made in serial two-fold dilutions in BSA-TBS. […]
# ornithine decarboxylase = conditions: Yasukawa et al. 1991; cited from earlier work
# 5-lipoxygenase = conditions: Sotomatsu et al. 1959; Inoue et al. 1986; cited from earlier work
# [2] = tested on: P-388 lymphocytic leukemia cells; conditions: Choi et al, Planta Medica 1988; cited from earlier work
Structure (SMILES),% Inhibition of Swelling ([1]; first printed value of three separate experiments) [%],"% Inhibition of Swelling ([1]; first printed value of three separate experiments, listed as Betulinic acid) [%]",% Inhibition of Swelling ([1]; second printed value of three separate experiments) [%],% Inhibition of Swelling ([1]; third printed value of three separate experiments) [%],IC50 (E-selectin) [µM],IC50 (P-selectin) [µM],inhibition of ornithine decarboxylase (ornithine decarboxylase),"inhibition of enzymes involved in leukotriene biosynthesis, including 5-lipoxygenase (5-lipoxygenase)",ED50 against P-388 lymphocytic leukemia cells [2] [µg/mL]
C=C(C)[C@@H]1CC[C@]2(C(=O)O)CC[C@]3(C)[C@H](CC[C@@H]4[C@@]5(C)CC[C@H](O)C(C)(C)[C@@H]5CC[C@]43C)[C@@H]12 [betulinic acid],~0,0.0,~12.2,~25.9,60,~750,known inhibitor of ornithine decarboxylase,"capacity to inhibit enzymes involved in leukotriene biosynthesis, including 5-lipoxygenase",–
C=C(C)[C@@H]1CC[C@]2(C(=O)OC)CC[C@]3(C)[C@H](CC[C@@H]4[C@@]5(C)CC[C@H](O)C(C)(C)[C@@H]5CC[C@]43C)[C@@H]12 [betulinic acid methyl ester],–,–,–,–,–,–,–,–,6.8
C=C(C)[C@@H]1CC[C@]2(C(=O)O)CC[C@]3(C)[C@H](CC[C@@H]4[C@@]5(C)CC[C@H](OC(C)=O)C(C)(C)[C@@H]5CC[C@]43C)[C@@H]12 [betulinic acid 3-monoacetate],–,–,–,–,–,–,–,–,10.5
